Laboratory results as given in patent US10905729B1, “Formulations and methods for wound treatment” (Sorush, LLC, priority 2011, dated 2021).

Test: Chemical analysis of the extract for the antibiotics (HPLC-MS / MS)
Type: physicochemical
Settings: added at 0.003% each; analysed about two weeks after formation of the extract
Method: 10 grams of dried Lawsonia inermis leaves (www.ETSY.com) were placed in a beaker and 100 ml of distilled water were added. The mixture was stirred for 2 hours at room temperature to obtain an aqueous Lawsonia inermis extract designated as a 10% w/w or w/v extract. […] The Lawsonia inermis extract was analyzed for antibiotic activity and for the presence of the antibiotics about two weeks after formation of the extract.
A chemical analysis was performed on the extract. […] Polymyxin B analysis was performed on a Thermo Finnigan LCQ MS.

Substance: Polymyxin B
- antibiotic not detected in the extract at a level of: < 960 nanograms/ml

Substance: Gentamicin [Gentamycin]
- antibiotic not detected in the extract at a level of: < 15.0 nanograms/ml
